Data reported in US8309718B2, “4-pyrazolyl-N-arylpyrimidin-2-amines and 4-pyrazolyl-N-heteroarylpyrimidin-2-amines as janus kinase inhibitors” (Incyte Corporation, priority 2007, dated 2012).

target: T1, human JAK2 (Homo sapiens, UniProt O60674); assay: In vitro JAK kinase assay (HTRF, phosphorylation of biotinylated peptide); format: biochemical; settings: catalytic domain a.a. 828-1132, 30 μM ATP, 500 nM peptide, room temperature 1 hr; read-out: JAK-2 IC50
T1 construct: JAK2 (a.a. 828-1132); His tag (N); made in house; host or cells: insect cells (baculovirus)
Procedure, shortened: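 His-tagged human JAK2 catalytic domain (a.a. 828-1132), baculovirus/insect-cell expressed; phosphorylation of 500 nM biotinylated peptide at 30 μM ATP in 50 mM Tris pH 7.8, 100 mM NaCl, 5 mM DTT, 0.01% BSA. 1 h at room temperature, EDTA stop, HTRF read (Eu-Py20/SA-APC); IC50.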

T1 sequence (O60674 828-1132): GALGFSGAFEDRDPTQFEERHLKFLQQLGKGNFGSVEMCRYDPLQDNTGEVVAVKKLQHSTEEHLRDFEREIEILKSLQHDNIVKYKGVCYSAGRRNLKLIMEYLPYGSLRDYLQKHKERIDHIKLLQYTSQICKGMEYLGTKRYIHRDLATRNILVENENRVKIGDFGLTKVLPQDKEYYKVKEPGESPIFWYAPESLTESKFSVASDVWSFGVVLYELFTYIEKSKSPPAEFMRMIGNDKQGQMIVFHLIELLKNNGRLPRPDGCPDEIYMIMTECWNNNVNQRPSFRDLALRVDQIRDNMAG

IC50 | SMILES
< 0.1 µM | CCS(=O)(=O)N1CCC(CC(CC#N)n2cc(-c3ccnc(Nc4ccc(-n5cccn5)cc4)n3)cn2)CC1 (racemic) [Example 43, 3-(4-(2-(4-(1H-pyrazol-1-yl)phenylamino)pyrimidin-4-yl)-1H-pyrazol-1-yl)-4-(1-(ethylsulfonyl)piperidin-4-yl)butanenitrile]
< 0.1 µM | CCS(=O)(=O)N1CCC(CC(CC#N)n2cc(-c3ccnc(Nc4ccccc4)n3)cn2)CC1 (racemic) [Example 44, 4-(1-(ethylsulfonyl)piperidin-4-yl)-3-(4-(2-(phenylamino)pyrimidin-4-yl)-1H-pyrazol-1-yl)butanenitrile]
< 0.1 µM | CCS(=O)(=O)N1CCC(CC(CC#N)n2cc(-c3ccnc(Nc4ccc(C(=O)N(C)C)cc4)n3)cn2)CC1 (racemic) [Example 46, 4-(4-(1-(1-cyano-3-(1-(ethylsulfonyl)piperidin-4-yl)propan-2-yl)-1H-pyrazol-4-yl)pyrimidin-2-ylamino)-N,N-dimethylbenzamide]
< 0.1 µM | CCS(=O)(=O)N1CCC(CC(CC#N)n2cc(-c3nc(Nc4ccc(N5CCOCC5)cc4)ncc3C)cn2)CC1 (racemic) [Example 48, 4-(1-(ethylsulfonyl)piperidin-4-yl)-3-(4-(5-methyl-2-(4-morpholinophenylamino)pyrimidin-4-yl)-1H-pyrazol-1-yl)butanenitrile]
< 0.1 µM | CS(=O)(=O)N1CCN(c2ccc(Nc3nccc(-c4cnn(C(CC#N)C5CCCC5)c4)n3)cc2)CC1 (racemic) [Example 54, 3-cyclopentyl-3-(4-(2-(4-(4-(methylsulfonyl)piperazin-1-yl)phenylamino)pyrimidin-4-yl)-1H-pyrazol-1-yl)propanenitrile]
< 0.1 µM | CN(C)C(=O)c1ccc(Nc2nccc(-c3cnn(C(CC#N)CC4CCN(S(=O)(=O)c5ccn(C)n5)CC4)c3)n2)cc1 (racemic) [Example 58, 4-(4-(1-(1-cyano-3-(1-(1-methyl-1H-pyrazol-3-ylsulfonyl)piperidin-4-yl)propan-2-yl)-1H-pyrazol-4-yl)pyrimidin-2-ylamino)-N,N-dimethylbenzamide]
< 0.1 µM | CN(C)C(=O)c1ccc(Nc2nccc(-c3cnn(C(CC#N)CC4CCN(C(=O)c5ccc(F)cc5F)CC4)c3)n2)cc1 (racemic) [Example 59, 4-(4-(1-(1-cyano-3-(1-(2,4-difluorobenzoyl)piperidin-4-yl)propan-2-yl)-1H-pyrazol-4-yl)pyrimidin-2-ylamino)-N,N-dimethylbenzamide]
< 0.1 µM | CC(=O)Nc1ccc(Nc2nccc(-c3cnn(C(CC#N)CC4CCN(C(=O)c5ccc(F)cc5F)CC4)c3)n2)cc1 (racemic) [Example 60, N-(4-(4-(1-(1-cyano-3-(1-(2,4-difluorobenzoyl)piperidin-4-yl)propan-2-yl)-1H-pyrazol-4-yl)pyrimidin-2-ylamino)phenyl)acetamide]
< 0.1 µM | Cc1cnc(Nc2ccc(N3CCOCC3)cc2)nc1-c1cnn(C(CC#N)CC2CCN(S(=O)(=O)c3ccn(C)n3)CC2)c1 (racemic) [Example 61, 4-(1-(1-methyl-1H-pyrazol-3-ylsulfonyl)piperidin-4-yl)-3-(4-(5-methyl-2-(4-morpholinophenylamino)pyrimidin-4-yl)-1H-pyrazol-1-yl)butanenitrile]
< 0.1 µM | Cc1cnc(Nc2ccccc2)nc1-c1cnn(C(CC#N)CC2CCN(S(=O)(=O)c3ccn(C)n3)CC2)c1 (racemic) [Example 65, 4-(1-(1-methyl-1H-pyrazol-3-ylsulfonyl)piperidin-4-yl)-3-(4-(5-methyl-2-(phenylamino)pyrimidin-4-yl)-1H-pyrazol-1-yl)butanenitrile]
< 0.1 µM | Cc1cnc(Nc2ccccc2)nc1-c1cnn(C(CC#N)CC2CCN(C(=O)c3ccc(F)cc3F)CC2)c1 (racemic) [Example 66, 4-(1-(2,4-difluorobenzoyl)piperidin-4-yl)-3-(4-(5-methyl-2-(phenylamino)pyrimidin-4-yl)-1H-pyrazol-1-yl)butanenitrile]

More lines, now with the values behind:

SMILES | IC50
N#CCC(C1CCCC1)n1cc(-c2ccnc(Nc3ccc(N4CCNCC4)cc3)n2)cn1 (racemic) [Example 41, 3-cyclopentyl-3-(4-(2-(4-(piperazin-1-yl)phenylamino)pyrimidin-4-yl)-1H-pyrazol-1-yl)propanenitrile] | < 0.1 µM
CCS(=O)(=O)N1CCC(CC(CC#N)n2cc(-c3ccnc(Nc4ccc(N5CCOCC5)cc4)n3)cn2)CC1 (racemic) [Example 42, 4-(1-(ethylsulfonyl)piperidin-4-yl)-3-(4-(2-(4-morpholinophenylamino)pyrimidin-4-yl)-1H-pyrazol-1-yl)butanenitrile] | < 0.1 µM
CC(=O)Nc1ccc(Nc2nccc(-c3cnn(C(CC#N)CC4CCN(S(=O)(=O)c5ccn(C)n5)CC4)c3)n2)cc1 (racemic) [Example 45, N-(4-(4-(1-(1-cyano-3-(1-(1-methyl-1H-pyrazol-3-ylsulfonyl)piperidin-4-yl)propan-2-yl)-1H-pyrazol-4-yl)pyrimidin-2-ylamino)phenyl)acetamide] | < 0.1 µM
Cn1ccc(S(=O)(=O)N2CCC(CC(CC#N)n3cc(-c4ccnc(Nc5ccc(C(N)=O)cc5)n4)cn3)CC2)n1 (racemic) [Example 47, 4-(4-(1-(1-cyano-3-(1-(1-methyl-1H-pyrazol-3-ylsulfonyl)piperidin-4-yl)propan-2-yl)-1H-pyrazol-4-yl)pyrimidin-2-ylamino)benzamide] | < 0.1 µM
CCS(=O)(=O)N1CCC(CC(CC#N)n2cc(-c3nc(Nc4ccc(-n5cccn5)cc4)ncc3C)cn2)CC1 (racemic) [Example 49, 3-(4-(2-(4-(1H-pyrazol-1-yl)phenylamino)-5-methylpyrimidin-4-yl)-1H-pyrazol-1-yl)-4-(1-(ethylsulfonyl)piperidin-4-yl)butanenitrile] | < 0.1 µM
CCS(=O)(=O)N1CCC(CC(CC#N)n2cc(-c3nc(Nc4ccccc4)ncc3C)cn2)CC1 (racemic) [Example 50, 4-(1-(ethylsulfonyl)piperidin-4-yl)-3-(4-(5-methyl-2-(phenylamino)pyrimidin-4-yl)-1H-pyrazol-1-yl)butanenitrile] | < 0.1 µM
CC(=O)Nc1ccc(Nc2ncc(C)c(-c3cnn(C(CC#N)CC4CCN(S(=O)(=O)c5ccn(C)n5)CC4)c3)n2)cc1 (racemic) [Example 51, N-(4-(4-(1-(1-cyano-3-(1-(1-methyl-1H-pyrazol-3-ylsulfonyl)piperidin-4-yl)propan-2-yl)-1H-pyrazol-4-yl)-5-methylpyrimidin-2-ylamino)phenyl)acetamide] | < 0.1 µM
CCS(=O)(=O)N1CCC(CC(CC#N)n2cc(-c3nc(Nc4ccc(C(=O)N(C)C)cc4)ncc3C)cn2)CC1 (racemic) [Example 52, 4-(4-(1-(1-cyano-3-(1-(ethylsulfonyl)piperidin-4-yl)propan-2-yl)-1H-pyrazol-4-yl)-5-methylpyrimidin-2-ylamino)-N,N-dimethylbenzamide] | < 0.1 µM
Cc1cnc(Nc2ccc(C(N)=O)cc2)nc1-c1cnn(C(CC#N)CC2CCN(S(=O)(=O)c3ccn(C)n3)CC2)c1 (racemic) [Example 53, 4-(4-(1-(1-cyano-3-(1-(1-methyl-1H-pyrazol-3-ylsulfonyl)piperidin-4-yl)propan-2-yl)-1H-pyrazol-4-yl)-5-methylpyrimidin-2-ylamino)benzamide] | < 0.1 µM
Cn1ccc(S(=O)(=O)N2CCC(CC(CC#N)n3cc(-c4ccnc(Nc5ccc(N6CCOCC6)cc5)n4)cn3)CC2)n1 (racemic) [Example 55, 4-(1-(1-methyl-1H-pyrazol-3-ylsulfonyl)piperidin-4-yl)-3-(4-(2-(4-morpholinophenylamino)pyrimidin-4-yl)-1H-pyrazol-1-yl)butanenitrile] | < 0.1 µM
Cn1ccc(S(=O)(=O)N2CCC(CC(CC#N)n3cc(-c4ccnc(Nc5ccc(-n6cccn6)cc5)n4)cn3)CC2)n1 (racemic) [Example 56, 3-(4-(2-(4-(1H-pyrazol-1-yl)phenylamino)pyrimidin-4-yl)-1H-pyrazol-1-yl)-4-(1-(1-methyl-1H-pyrazol-3-ylsulfonyl)piperidin-4-yl)butanenitrile] | < 0.1 µM
Cn1ccc(S(=O)(=O)N2CCC(CC(CC#N)n3cc(-c4ccnc(Nc5ccccc5)n4)cn3)CC2)n1 (racemic) [Example 57, 4-(1-(1-methyl-1H-pyrazol-3-ylsulfonyl)piperidin-4-yl)-3-(4-(2-(phenylamino)pyrimidin-4-yl)-1H-pyrazol-1-yl)butanenitrile] | < 0.1 µM
Cc1cnc(Nc2ccc(N3CCOCC3)cc2)nc1-c1cnn(C(CC#N)CC2CCN(C(=O)c3ccc(F)cc3F)CC2)c1 (racemic) [Example 62, 4-(1-(2,4-difluorobenzoyl)piperidin-4-yl)-3-(4-(5-methyl-2-(4-morpholinophenylamino)pyrimidin-4-yl)-1H-pyrazol-1-yl)butanenitrile] | < 0.1 µM
Cc1cnc(Nc2ccc(-n3cccn3)cc2)nc1-c1cnn(C(CC#N)CC2CCN(S(=O)(=O)c3ccn(C)n3)CC2)c1 (racemic) [Example 63, 3-(4-(2-(4-(1H-pyrazol-1-yl)phenylamino)-5-methylpyrimidin-4-yl)-1H-pyrazol-1-yl)-4-(1-(1-methyl-1H-pyrazol-3-ylsulfonyl)piperidin-4-yl)butanenitrile] | < 0.1 µM
Cc1cnc(Nc2ccc(-n3cccn3)cc2)nc1-c1cnn(C(CC#N)CC2CCN(C(=O)c3ccc(F)cc3F)CC2)c1 (racemic) [Example 64, 3-(4-(2-(4-(1H-pyrazol-1-yl)phenylamino)-5-methylpyrimidin-4-yl)-1H-pyrazol-1-yl)-4-(1-(2,4-difluorobenzoyl)piperidin-4-yl)butanenitrile] | < 0.1 µM
Cc1cnc(Nc2ccc(C(=O)N(C)C)cc2)nc1-c1cnn(C(CC#N)CC2CCN(S(=O)(=O)c3ccn(C)n3)CC2)c1 (racemic) [Example 67, 4-(4-(1-(1-cyano-3-(1-(1-methyl-1H-pyrazol-3-ylsulfonyl)piperidin-4-yl)propan-2-yl)-1H-pyrazol-4-yl)-5-methylpyrimidin-2-ylamino)-N,N-dimethylbenzamide] | < 0.1 µM
